Measured values published in patent US20070298111A1, “Fine Particle-Containing Composition and Manufacturing Method Therefor” (EISAI R&D MANAGEMENT CO., LTD., priority 2004, published 2007).

Key:
[1] = pharmacopoeia term; cited from earlier work
[2] = Solubility of glibenclamide in the presence of both α-CD and SDS; type: physicochemical; conditions: 3 days at room temperature
Method: To an aqueous solution (4 mL) containing α-CD and SDS was added glibenclamide (20 mg), which was stirred for 3 days at room temperature. This solution was filtered using a Millex-HV filter (Millipore) with a pore size of 0.45 μm, and the glibenclamide concentration in the filtrate was measured by HPLC using a Unison UK-C18 column (Imtakt).

Q: Which Solubility in water [1] does the source give for `COc1ccc(Cl)cc1C(=O)NCCc1ccc(S(=O)(=O)NC(=O)NC2CCCCC2)cc1` [glibenclamide, 4-[2-(5-Chloro-2-methoxybenzoylamino)ethyl](N-cyclohexylcarbamoyl)benzene-sulfonaide] here?
A: practically insoluble in water

Q: And the “Solubility of glibenclamide relative to SDS concentration (FIG. 6)” value ([2]; α-CD added)?
A: a bending point appeared indicating minimum solubility

Q: What about the “Solubility of glibenclamide relative to SDS concentration (FIG. 6)” value ([2]; α-CD concentration 0.0 mM) of the same compound?
A: solubility rose as the SDS concentration rose

Q: Which Solubility in water [1] does the source give for `Cc1cccc(Nc2ccccc2C(=O)O)c1C` [mefenamic acid, 2-(2,3-dimethylphenylamino)benzoic acid] here?
A: practically insoluble in water

Q: For `CC(=O)S[C@@H]1CC2=CC(=O)CC[C@]2(C)[C@H]2CC[C@@]3(C)[C@@H](CC[C@@]34CCC(=O)O4)[C@H]12` [spironolactone, 7α-acetylsulfanyl-3-oxo-17α-pregn-4-ene-21,17β-carbolactone], which Solubility in water [1] is on record?
A: practically insoluble in water
